{
  "source": "patent US11136296B2",
  "about": "“Substituted N-arylethyl-2-arylquinoline-4-carboxamides and use thereof” (Bayer Aktiengesellschaft, priority 2017, dated 2021)",
  "biological_target": "FP receptor (Homo sapiens (Human), UniProt P43088)",
  "sequence (P43088 whole entry)": "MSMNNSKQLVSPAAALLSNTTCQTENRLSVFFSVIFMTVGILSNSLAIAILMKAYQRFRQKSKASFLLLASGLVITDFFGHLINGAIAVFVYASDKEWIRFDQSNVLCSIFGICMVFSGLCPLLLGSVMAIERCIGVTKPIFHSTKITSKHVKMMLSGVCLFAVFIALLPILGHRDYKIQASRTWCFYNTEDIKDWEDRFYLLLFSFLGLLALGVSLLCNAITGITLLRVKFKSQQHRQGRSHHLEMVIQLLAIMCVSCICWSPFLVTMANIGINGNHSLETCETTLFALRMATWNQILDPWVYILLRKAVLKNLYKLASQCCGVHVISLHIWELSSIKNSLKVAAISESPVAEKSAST",
  "assay": "In vitro test of inhibition of human FP receptor activity (PGF2α-induced calcium flux in FP-expressing CHEM1 cells)",
  "format": "cell-based",
  "conditions": "PGF2α-induced (2 nM) calcium flux in FP-expressing CHEM1 cells; some as mean values from multiple determinations",
  "source_text": "Table 1 below lists the IC50 values from this assay for individual working examples of the invention (some as mean values from multiple independent individual determinations): […]",
  "data": [
    {"smiles": "COc1c(F)cc(F)cc1C(C)(CNC(=O)c1c(C)c(-c2ccccc2)nc2ccc(Br)cc12)CC(=O)O", "note": "(single isomer, unassigned; (+)) [Example 136, (+)-4-{[(6-Bromo-3-methyl-2-phenylquinolin-4-yl)carbonyl]amino}-3-(3,5-difluoro-2-methoxyphenyl)-3-methylbutanoic Acid]", "values": [
      {"measurement": "IC50", "result": 13, "unit": "nM"}
    ]},
    {"smiles": "COc1cc(F)ccc1C(C)(CNC(=O)c1c(C)c(-c2ccccc2)nc2ccc(Br)cc12)CC(=O)O", "note": "(single isomer, unassigned; (+)) [Example 139, (+)-4-{[(6-Bromo-3-methyl-2-phenylquinolin-4-yl)carbonyl]amino}-3-(4-fluoro-2-methoxyphenyl)-3-methylbutanoic Acid]", "values": [
      {"measurement": "IC50", "result": 28, "unit": "nM"}
    ]},
    {"smiles": "COc1cccc(F)c1C(C)(CNC(=O)c1c(C)c(-c2ccccc2)nc2ccc(Br)cc12)CC(=O)O", "note": "(single isomer, unassigned; (+)) [Example 143, (+)-4-{[(6-Bromo-3-methyl-2-phenylquinolin-4-yl)carbonyl]amino}-3-(2-fluoro-6-methoxyphenyl)-3-methylbutanoic Acid]", "values": [
      {"measurement": "IC50", "result": 6.8, "unit": "nM"}
    ]},
    {"smiles": "Cc1c(-c2ccccc2)nc2ccc(Br)cc2c1C(=O)NC(C)C(CC(=O)O)c1ccccc1Cl", "note": "(single isomer, unassigned; (+)) [Example 147, (+)-4-{[(6-Bromo-3-methyl-2-phenylquinolin-4-yl)carbonyl]amino}-3-(2-chlorophenyl)pentanoic Acid]", "values": [
      {"measurement": "IC50", "result": "> 1000", "unit": "nM"}
    ]},
    {"smiles": "Cc1c(-c2ccccc2)nc2ccc(Br)cc2c1C(=O)NC(C)C(CC(=O)O)c1ccccc1Cl", "note": "(single isomer, unassigned; (+)) [Example 150, (+)-4-{[(6-Bromo-3-methyl-2-phenylquinolin-4-yl)carbonyl]amino}-3-(2-chlorophenyl)pentanoic Acid]", "values": [
      {"measurement": "IC50", "result": 960, "unit": "nM"}
    ]},
    {"smiles": "Cc1c(-c2ccccc2)nc2ccc(Br)cc2c1C(=O)NCC(C)(CCC(=O)O)c1ccccc1Cl", "note": "(single isomer, unassigned; (+)) [Example 156, (+)-5-{[(6-Bromo-3-methyl-2-phenylquinolin-4-yl)carbonyl]amino}-4-(2-chlorophenyl)-4-methylpentanoic Acid]", "values": [
      {"measurement": "IC50", "result": 8, "unit": "nM"}
    ]},
    {"smiles": "Cc1c(-c2ccccc2)nc2ccc(Br)cc2c1C(=O)NCC(CCC(=O)O)c1c(F)cccc1Cl", "note": "(single isomer, unassigned; (+)) [Example 159, (+)-5-{[(6-Bromo-3-methyl-2-phenylquinolin-4-yl)carbonyl]amino}-4-(2-chloro-6-fluorophenyl)pentanoic Acid]", "values": [
      {"measurement": "IC50", "result": 24, "unit": "nM"}
    ]},
    {"smiles": "Cc1ccccc1C(CCC(=O)O)CNC(=O)c1c(C)c(-c2ccccc2)nc2ccc(Br)cc12", "note": "(single isomer, unassigned; (+)) [Example 162, (+)-5-{[(6-Bromo-3-methyl-2-phenylquinolin-4-yl)carbonyl]amino}-4-(2-methylphenyl)pentanoic Acid]", "values": [
      {"measurement": "IC50", "result": 33, "unit": "nM"}
    ]},
    {"smiles": "Cc1c(-c2ccccc2)nc2ccc(Br)cc2c1C(=O)NCC(CCC(=O)O)c1cc(F)ccc1Cl", "note": "(single isomer, unassigned; (+)) [Example 165, (+)-5-{[(6-Bromo-3-methyl-2-phenylquinolin-4-yl)carbonyl]amino}-4-(2-chloro-5-fluorophenyl)pentanoic Acid]", "values": [
      {"measurement": "IC50", "result": 6.6, "unit": "nM"}
    ]},
    {"smiles": "COc1ccccc1C(CCC(=O)O)CNC(=O)c1c(C)c(-c2ccccc2)nc2ccc(Br)cc12", "note": "(single isomer, unassigned; (+)) [Example 168, (+)-5-{[(6-Bromo-3-methyl-2-phenylquinolin-4-yl)carbonyl]amino}-4-(2-methoxyphenyl)pentanoic Acid]", "values": [
      {"measurement": "IC50", "result": 3.6, "unit": "nM"}
    ]},
    {"smiles": "Cc1c(-c2ccccc2)nc2ccc(Br)cc2c1C(=O)NCC(C)(CCC(=O)O)c1cc(F)ccc1Cl", "note": "(single isomer, unassigned; (+)) [Example 171, (+)-5-{[(6-Bromo-3-methyl-2-phenylquinolin-4-yl)carbonyl]amino}-4-(2-chloro-5-fluorophenyl)-4-methylpentanoic Acid]", "values": [
      {"measurement": "IC50", "result": 11, "unit": "nM"}
    ]},
    {"smiles": "Cc1c(-c2ccccc2)nc2ccc(Br)cc2c1C(=O)NCC(CCC(=O)O)c1ccccc1F", "note": "(single isomer, unassigned; (+)) [Example 177, (+)-5-{[(6-Bromo-3-methyl-2-phenylquinolin-4-yl)carbonyl]amino}-4-(2-fluorophenyl)pentanoic Acid]", "values": [
      {"measurement": "IC50", "result": 19, "unit": "nM"}
    ]},
    {"smiles": "Cc1c(-c2ccccc2)nc2ccc(Br)cc2c1C(=O)NCC(CCC(=O)O)c1ccccc1OC(F)F", "note": "(single isomer, unassigned; (+)) [Example 180, (+)-5-{[(6-Bromo-3-methyl-2-phenylquinolin-4-yl)carbonyl]amino}-4-[2-(difluoromethoxy)phenyl]pentanoic Acid]", "values": [
      {"measurement": "IC50", "result": 8.2, "unit": "nM"}
    ]},
    {"smiles": "Cc1c(-c2ccccc2)nc2ccc(Br)cc2c1C(=O)NCC(CCC(=O)O)c1c(F)cccc1F", "note": "(single isomer, unassigned; (+)) [Example 183, (+)-5-{[(6-Bromo-3-methyl-2-phenylquinolin-4-yl)carbonyl]amino}-4-(2,6-difluorophenyl)pentanoic Acid]", "values": [
      {"measurement": "IC50", "result": 23, "unit": "nM"}
    ]},
    {"smiles": "Cc1c(-c2ccccc2)nc2ccc(Br)cc2c1C(=O)NCC(CCC(=O)O)c1cccc(F)c1Cl", "note": "(single isomer, unassigned; (+)) [Example 186, (+)-5-{[(6-Bromo-3-methyl-2-phenylquinolin-4-yl)carbonyl]amino}-4-(2-chloro-3-fluorophenyl)pentanoic Acid]", "values": [
      {"measurement": "IC50", "result": 17, "unit": "nM"}
    ]},
    {"smiles": "Cc1c(-c2ccccc2)nc2ccc(Br)cc2c1C(=O)NCC(c1ccccc1Cl)N(C)CC(=O)O", "note": "(single isomer, unassigned; (+)) [Example 189, (+)-N-[2-{[(6-Bromo-3-methyl-2-phenylquinolin-4-yl)carbonyl]amino}-1-(2-chlorophenyl)ethyl]-N-methylglycine]", "values": [
      {"measurement": "IC50", "result": 62, "unit": "nM"}
    ]},
    {"smiles": "Cc1c(-c2ccccc2)nc2ccc(Br)cc2c1C(=O)NCC(OCC(=O)O)c1ccccc1Cl", "note": "(single isomer, unassigned; (+)) [Example 192, (+)-[2-{[(6-Bromo-3-methyl-2-phenylquinolin-4-yl)carbonyl]amino}-1-(2-chlorophenyl)ethoxy]acetic Acid]", "values": [
      {"measurement": "IC50", "result": 42, "unit": "nM"}
    ]},
    {"smiles": "Cc1c(-c2ccccc2)nc2ccc(Br)cc2c1C(=O)NCC(SCC(=O)O)c1ccccc1Cl", "note": "(single isomer, unassigned; (+)) [Example 195, (+)-{[2-{[(6-Bromo-3-methyl-2-phenylquinolin-4-yl)carbonyl]amino}-1-(2-chlorophenyl)ethyl]sulfanyl}acetic Acid]", "values": [
      {"measurement": "IC50", "result": 8, "unit": "nM"}
    ]},
    {"smiles": "Cc1c(-c2ccccc2)nc2ccc(Br)cc2c1C(=O)NCC(CCC(=O)O)c1c(Cl)ccc(F)c1F", "note": "(single isomer, unassigned; (+)) [Example 202, (+)-5-{[(6-Bromo-3-methyl-2-phenylquinolin-4-yl)carbonyl]amino}-4-(6-chloro-2,3-difluorophenyl)pentanoic Acid]", "values": [
      {"measurement": "IC50", "result": 6.2, "unit": "nM"}
    ]},
    {"smiles": "Cc1c(-c2ccccc2)nc2ccc(Br)cc2c1C(=O)NCC(CCC(=O)O)c1ccccc1C(F)(F)F", "note": "(single isomer, unassigned; (+)) [Example 205, (+)-5-{[(6-Bromo-3-methyl-2-phenylquinolin-4-yl)carbonyl]amino}-4-[2-(trifluoromethyl)phenyl]pentanoic Acid]", "values": [
      {"measurement": "IC50", "result": 22, "unit": "nM"}
    ]},
    {"smiles": "Cc1ccc(F)cc1C(CCC(=O)O)CNC(=O)c1c(C)c(-c2ccccc2)nc2ccc(Br)cc12", "note": "(single isomer, unassigned; (+)) [Example 208, (+)-5-{[(6-Bromo-3-methyl-2-phenylquinolin-4-yl)carbonyl]amino}-4-(5-fluoro-2-methylphenyl)pentanoic Acid]", "values": [
      {"measurement": "IC50", "result": 11, "unit": "nM"}
    ]},
    {"smiles": "Cc1c(-c2ccccc2)nc2ccc(Br)cc2c1C(=O)NCC(CCC(=O)O)c1ccccc1OC(F)(F)F", "note": "(single isomer, unassigned; (+)) [Example 210, (+)-5-{[(6-Bromo-3-methyl-2-phenylquinolin-4-yl)carbonyl]amino}-4-[2-(trifluoromethoxy)phenyl]pentanoic Acid]", "values": [
      {"measurement": "IC50", "result": 6.1, "unit": "nM"}
    ]},
    {"smiles": "O=C(O)CCC(CNC(=O)c1c(Cl)c(-c2ccccc2)nc2ccc(Br)cc12)c1ccccc1Cl", "note": "(single isomer, unassigned; (+)) [Example 214, (+)-5-{[(6-Bromo-3-chloro-2-phenylquinolin-4-yl)carbonyl]amino}-4-(2-chlorophenyl)pentanoic Acid]", "values": [
      {"measurement": "IC50", "result": 4.4, "unit": "nM"}
    ]},
    {"smiles": "O=C(O)CCC(CNC(=O)c1c(Cl)c(-c2ccccc2)nc2ccc(Br)cc12)c1ccccc1C(F)(F)F", "note": "(single isomer, unassigned; (+)) [Example 217, (+)-5-{[(6-Bromo-3-chloro-2-phenylquinolin-4-yl)carbonyl]amino}-4-[2-(trifluoromethyl)phenyl]pentanoic Acid]", "values": [
      {"measurement": "IC50", "result": 19, "unit": "nM"}
    ]},
    {"smiles": "C#Cc1ccc2nc(-c3ccccc3)c(C)c(C(=O)NCC(CCC(=O)O)c3ccccc3Cl)c2c1", "note": "(single isomer, unassigned; (+)) [Example 220, (+)-4-(2-Chlorophenyl)-5-{[(6-ethynyl-3-methyl-2-phenylquinolin-4-yl)carbonyl]amino}pentanoic Acid]", "values": [
      {"measurement": "IC50", "result": 8, "unit": "nM"}
    ]},
    {"smiles": "O=C(O)CCC(CNC(=O)c1c(Cl)c(-c2ccccc2)nc2ccc(Br)cc12)c1c(F)ccc(F)c1Cl", "note": "(single isomer, unassigned; (+)) [Example 223, (+)-5-{[(6-Bromo-3-chloro-2-phenylquinolin-4-yl)carbonyl]amino}-4-(2-chloro-3,6-difluorophenyl)pentanoic Acid]", "values": [
      {"measurement": "IC50", "result": 12, "unit": "nM"}
    ]},
    {"smiles": "Cc1c(-c2ccccc2)nc2ccc(Br)cc2c1C(=O)NCC(CCC(=O)O)c1c(F)cccc1C(F)(F)F", "note": "(single isomer, unassigned; (+)) [Example 226, (+)-5-{[(6-Bromo-3-methyl-2-phenylquinolin-4-yl)carbonyl]amino}-4-[2-fluoro-6-(trifluoromethyl)phenyl]pentanoic Acid]", "values": [
      {"measurement": "IC50", "result": 100, "unit": "nM"}
    ]},
    {"smiles": "Cc1c(-c2ccccc2)nc2ccc(Br)cc2c1C(=O)NCC(CCC(=O)O)c1c(F)c(F)cc(F)c1F", "note": "(single isomer, unassigned; (+)) [Example 230, (+)-5-{[(6-Bromo-3-methyl-2-phenylquinolin-4-yl)carbonyl]amino}-4-(2,3,5,6-tetrafluorophenyl)pentanoic Acid]", "values": [
      {"measurement": "IC50", "result": 49, "unit": "nM"}
    ]}
  ]
}
